# Test results: patent US4104389A, “Antiallergic pyrido[2,1-b]quinazolin-ones” (Warner-Lambert Company, priority 1977, dated 1978)
# Like-named read-outs stand apart in the source and are kept apart here.
# Tests used:
# [1] = tested on: antibody-antigen reactions (PCA); experiment: PCA (rat), procedure of Herzig; reduction of allergic responses to antigen challenge; assay type: in vivo
# Procedure: When tested in accordance with the procedure of Herzig [Immunopharmacology, M. E. Rosenthale and H. C. Mansmann, Eds., John Wiley and Son, N.Y., 1975], these compounds as shown in Table I may be administered orally, parenterally, or by aerosol at a dose of 0.005-20mg/kg. Compounds of this invention are useful in the management of allergic reactions such as bronchial asthma.
# [2] = Netherlands Pat. No. 6,414,717; cited from earlier work
# [3] = rat, iv., read-out: ED50 - PCA (rat) iv.
Compound,activity when given intravenously ([1]; intravenously),activity when given orally ([1]; orally),"ED50 ([1]; rat, ip., read-out: ED50 - PCA (rat) ip.)","ED50 [1, 3]","ED50 ([1]; rat, po., read-out: ED50 - PCA (rat) po.)","activity compared with isomers of the invention ([1]; comparison in words, Table I)","PCA (rat) inhibition, ip. ([1]; rat, ip., 10mg/kg)","PCA (rat) activity, po., in words ([1]; rat, po., 10mg/kg)",anti-inflammatory action [2],"ED50 - PCA (rat) ip., in words ([1]; rat, ip., dose not given)","ED50 - PCA (rat) po., in words ([1]; rat, po., dose not given)"
"O=C(O)c1ccc2nc3ccccc3c(=O)n2c1 [Example 1, 11-oxo-11H-pyrido[2,1-b]quinazoline-8-carboxylic acid]",active,active,2 mg/kg,0.2 mg/kg,2 mg/kg,–,–,–,–,–,–
O=C(O)c1cccn2c(=O)c3ccccc3nc12 [Example 799],–,–,–,–,–,less active,21%,inactive,possesses anti-inflammatory action,–,–
O=C(O)c1cc(=O)c2c(OCC(O)COc3cccc4oc(C(=O)O)cc(=O)c34)cccc2o1 [Intal],–,–,–,1 to 2 mg/kg,–,–,–,–,–,inact.,inactive
